Measurements as given in patent US8906909B2 (Curis, Inc., priority 2009, dated 2014).
Read-outs that look alike come from different tables or passages of the source.

Legend:
H1975 cells = test: Cell proliferation assay Method B, H1975; format: cell-based; details: Homo sapiens, NCI-H1975, NSCLC, 72 hours, read-out: antiproliferative activity IC50, H1975
Procedure: (§1) Cancer cell lines were plated at 5,000 to 10,000 per well in 96-well flat bottomed plates with various concentration of compounds. The cells were incubated with compounds for 72 hours in the presence of 0.5% of fetal bovine serum. Growth inhibition was accessed by adenosine triphosphate (ATP) content assay using Promega CellTiter-Glo kit. Promega CellTiter-Glo kit is an ATP monitoring system based on firefly luciferase. Briefly, 16 μl of mammalian cell lysis and substrate solution was added to 84 μl of culture medium per well to lyse the cells and stabilize the ATP. The mixture was shaken and incubated for 30 minutes and subsequently the luminescence was measured.

U87MG cells = test: Cell proliferation assay Method B, U87MG; format: cell-based; details: Homo sapiens, U-87 MG, Glioblastoma, 72 hours, read-out: antiproliferative activity IC50, U87MG
Procedure: as §1

H1993 cells [1] = test: Cell proliferation assay Method B, H1993; format: cell-based; details: Homo sapiens, NCI-H1993, NSCLC, 72 hours, read-out: antiproliferative activity IC50, H1993
Procedure: as §1

A375 cells = test: Cell proliferation assay Method B, A375; format: cell-based; details: Homo sapiens, A-375, Melanoma, 72 hours, read-out: antiproliferative activity IC50, A375
Procedure: as §1

MDA-MB-436 cells = test: Cell proliferation assay Method B, MDA-MB-436; format: cell-based; details: Homo sapiens, 72 hours, read-out: antiproliferative activity IC50, MDA-MB-436
Procedure: as §1

Sk-Mel-28 cells [2] = test: Cell proliferation assay Method B, Sk-Mel-28; format: cell-based; details: Homo sapiens, Melanoma, 72 hours, read-out: antiproliferative activity IC50, Sk-Mel-28
Procedure: as §1

BT474 cells = test: Cell proliferation assay Method B, BT474; format: cell-based; details: Homo sapiens, BT-474, 72 hours, read-out: antiproliferative activity IC50, BT474
Procedure: as §1

MDA-MB-468 cells = test: Cell proliferation assay Method B, MDA-MB-468; format: cell-based; details: Homo sapiens, 72 hours, read-out: antiproliferative activity IC50, MDA-MB-468
Procedure: as §1

[3] = tested on: HDACs (HeLa cell nuclear extracts); test: HDAC enzymatic activity, Biomol Color de Lys system; format: biochemical
In short: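 IC50 from sigmoidal dose-response fits of fluorescence (Ex 350–380, Em 440–460 nm). Compounds in DMSO dilution series incubated 1 h at 25 °C with HeLa nuclear extract HDACs and colorimetric substrate, pH 8.0 Tris/Cl buffer with NaCl, KCl, MgCl2, before developer termination.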

HCC1937 cells = test: Cell proliferation assay Method B, HCC1937; format: cell-based; details: Homo sapiens, 72 hours, read-out: antiproliferative activity IC50, HCC1937
Procedure: as §1

RPMI-8226 cells = test: Cell proliferation assay Method B, RPMI-8226; format: cell-based; details: Homo sapiens, Multiple Myeloma, 72 hours, read-out: antiproliferative activity IC50, RPMI-8226
Procedure: as §1

HCT-118 cells = test: Cell proliferation assay Method A (ATPlite), HCT-118; format: cell-based; details: 72 hours, read-out: antiproliferative activity IC50, HCT-118
Procedure: (§2) Cancer cell lines were plated at 5,000 to 10,000 per well in 96-well flat bottomed plates with various concentration of compounds. The cells were incubated with compounds for 72 hours in the presence of 0.5% of fetal bovine serum. Growth inhibition was accessed by adenosine triphosphate (ATP) content assay using Perkin Elmer ATPlite kit. ATPlite is an ATP monitoring system based on firefly luciferase. Briefly, 25 μl of mammalian cell lysis solution was added to 50 μl of phenol red-free culture medium per well to lyse the cells and stabilize the ATP. 25 μl of substrate solution was then added to the well and subsequently the luminescence was measured.

Sk-Mel-28 cells [4] = test: Cell proliferation assay Method A (ATPlite), Sk-Mel-28; format: cell-based; details: Homo sapiens, 72 hours, read-out: antiproliferative activity IC50, Sk-Mel-28
Procedure: as §2

H1993 cells [5] = test: Cell proliferation assay Method A (ATPlite), H1993; format: cell-based; details: Homo sapiens, NCI-H1993, 72 hours, read-out: antiproliferative activity IC50, H1993
Procedure: as §2

Ca127 cells = test: Cell proliferation assay Method B, Ca127; format: cell-based; details: HNC; Ca127; 72 hours, 0.5% fetal bovine serum, CellTiter-Glo; read-out: antiproliferative activity IC50, Ca127
Procedure: as §1

BT-474 cells = test: Cell proliferation assay Method A (ATPlite), BT-474; format: cell-based; details: Homo sapiens, 72 hours, read-out: antiproliferative activity IC50, BT-474
Procedure: as §2

MDA-MB-231 cells = test: Cell proliferation assay Method B, MDA-MB-231; format: cell-based; details: Homo sapiens, 72 hours, 0.5% fetal bovine serum, CellTiter-Glo, read-out: antiproliferative activity IC50, MDA-MB-231
Procedure: as §1

[6] = H1975, 0.5% fetal bovine serum, CellTiter-Glo
[7] = U87MG, 0.5% fetal bovine serum, CellTiter-Glo
[8] = H1993, 0.5% fetal bovine serum, CellTiter-Glo
[9] = A375, 0.5% fetal bovine serum, CellTiter-Glo
[10] = 0.5% fetal bovine serum, CellTiter-Glo
[11] = Sk-Mel-28, 0.5% fetal bovine serum, CellTiter-Glo
[12] = BT474, 0.5% fetal bovine serum, CellTiter-Glo

| Structure (SMILES) | IC50 (H1975 cells; Method B) [µM] | IC50 (U87MG cells; Method B) [µM] | IC50 (H1993 cells [1]; Method B) [µM] | IC50 (A375 cells; Method B) [µM] | IC50 (MDA-MB-436 cells; Breast, Method B) [µM] | IC50 (Sk-Mel-28 cells [2]; SK-MEL-28, Method B) [µM] | IC50 (BT474 cells; Breast, Method B) [µM] | IC50 (MDA-MB-468 cells; Breast, Method B) [µM] | IC50 [3] [µM] | IC50 (HCC1937 cells; Breast, Method B) [µM] | melting point [°C] | IC50 (H1975 cells; [6]) [µM] | IC50 (U87MG cells; [7]) [µM] | IC50 (HCT-118 cells) [µM] | IC50 (Sk-Mel-28 cells [4]) [µM] | IC50 (H1993 cells [5]) [µM] | IC50 (H1993 cells [1]; [8]) [µM] | IC50 (A375 cells; [9]) [µM] | IC50 (MDA-MB-436 cells; [10]) [µM] | IC50 (Sk-Mel-28 cells [2]; [11]) [µM] | also measured |
| --- | --- | --- | --- | --- | --- | --- | --- | --- | --- | --- | --- | --- | --- | --- | --- | --- | --- | --- | --- | --- | --- |
| Cc1ncc(-c2nc(N3CCOCC3)c3sc(CN(C)c4ncc(C(=O)NO)cn4)cc3n2)cn1 [Compound 120, N-hydroxy-2-(methyl((2-(2-methylpyrimidin-5-yl)-4-morpholinothieno[3,2-d]pyrimidin-6-yl)methyl)amino)pyrimidine-5-carboxamide] | 0.01 to 0.1 | 0.01 to 0.1 | 0.01 to 0.1 | 0.01 to 0.1 | 0.01 to 0.1 | 0.01 to 0.1 | 0.01 to 0.1 | 0.01 to 0.1 | < 0.1 | 0.01 to 0.1 | 184 to 186 | – | – | – | – | – | – | – | – | – | IC50 (RPMI-8226 cells; Method B): < 0.01 µM |
| CN(Cc1cc2nc(-c3cccc(O)c3)nc(N3CCOCC3)c2s1)c1ncc(C(=O)NO)cn1 [Compound 132, N-hydroxy-2-(((2-(3-hydroxyphenyl)-4-morpholinothieno[3,2-d]pyrimidin-6-yl)methyl)(methyl)amino)pyrimidine-5-carboxamide] | – | – | – | – | – | – | – | – | < 0.1 | – | 175 to 181 | 0.01 to 0.1 | 0.01 to 0.1 | < 0.1 | < 0.1 | < 0.1 | 0.01 to 0.1 | 0.01 to 0.1 | 0.01 to 0.1 | 0.01 to 0.1 | IC50 (BT474 cells; [12]): < 0.01 µM; IC50 (Ca127 cells): 0.01 to 0.1 µM; IC50 (MDA-MB-468 cells; [10]): 0.1 to 1 µM; IC50 (BT-474 cells): < 0.1 µM; IC50 (HCC1937 cells; [10]): 0.1 to 1 µM; IC50 (RPMI-8226 cells; [10]): < 0.01 µM |
| CN(Cc1cc2nc(-c3cccc(CO)c3)nc(N3CCOCC3)c2s1)c1ncc(C(=O)NO)cn1 [Compound 138, N-hydroxy-2-(((2-(3-(hydroxymethyl)phenyl)-4-morpholinothieno[3,2-d]pyrimidin-6-yl)methyl)(methyl)amino)pyrimidine-5-carboxamide] | 0.01 to 0.1 | < 0.01 | 0.01 to 0.1 | 0.01 to 0.1 | 0.01 to 0.1 | 0.01 to 0.1 | < 0.01 | 0.01 to 0.1 | < 0.1 | 0.01 to 0.1 | 160 to 164 | – | – | < 0.1 | < 0.1 | < 0.1 | – | – | – | – | IC50 (BT-474 cells): < 0.1 µM |
| CC(=O)Nc1ccc(-c2nc(N3CCOCC3)c3sc(CN(C)c4ncc(C(=O)NO)cn4)cc3n2)cc1 [Compound 157, 2-(((2-(4-acetamidophenyl)-4-morpholinothieno[3,2-d]pyrimidin-6-yl)methyl)(methyl)amino)-N-hydroxypyrimidine-5-carboxamide] | – | – | – | – | – | – | – | – | < 0.1 | – | 228 to 230 | 0.01 to 0.1 | 0.01 to 0.1 | – | – | – | 0.01 to 0.1 | 0.01 to 0.1 | 0.01 to 0.1 | 0.01 to 0.1 | IC50 (BT474 cells; [12]): < 0.01 µM; IC50 (Ca127 cells): 0.01 to 0.1 µM; IC50 (MDA-MB-468 cells; [10]): 0.01 to 0.1 µM; IC50 (MDA-MB-231 cells): 0.01 to 0.1 µM; IC50 (RPMI-8226 cells; [10]): 0.01 to 0.1 µM |
